The subject of experiment [1] is CMA in HSC from KFERQ-Dendra mice. Description: KFERQ-Dendra CMA reporter in HSC after in vivo activation. Also noted: species or system mouse. An excerpt:
Mice. Hematopoietic system specific L2A KO mice were created by crossing C57BL/6 Vav-iCre mice with C57BL/6 L2Af/f mice. […] For the aging studies, 3-4 months (labeled as 4 m) and 25-30 m (labeled as >25 m) male mice were used in the young and old group, respectively. KFERQ-Dendra2 transgenic mice and KFERQ-Dendra mice defective in CMA (KFERQ-Dendra-L2AKO) were generated as described before. […] Young and old controls were similarly injected with tamoxifen. […] KFERQ-Dendra mice with extra copy of human L2A (KFERQ-Dendra-hL2AOE) were generated by breeding KFERQ-Dendra male mice with hL2AOE mice. […] Bone marrow was analyzed at the same times. Data is from the analysis 8 days post-injection, unless otherwise specified. For serial 5FU injections, mice were injected every week and 7 days post injection blood was taken and blood counts measured as above and dead mice and time of death were registered. […] The CMA activator (CA 20 mg/Kg b.w. per mouse day for 2 months) was administered orally in the form of sucralose gelatin agar pills.
Immunofluorescence staining. HSC or myeloid progenitor cells were directly sorted into 16-well slides pre-coated with Cell-Tak Cell Tissue Adhesive (Coming, 354240) and then fixed with 4% PFA for 15 min at room temperature (RT). For LAMP2A, LAMP1, total human LAMP2 and FADS2 staining, slides were washed with PBS and incubated with blocking buffer (5% goat serum/0.3% TrionX-100 in PBS) for 1 hour at RT and incubated ovemight at 4° C. with the first antibody diluted in 1% BSA/0.3% TritonX-100 followed by 40 min incubation at RT with fluorescence-conjugated secondary antibodies. Cells were washed 3 times with PBS and mounted with mounting medium with DAPI (Southern biotech). […] Oxidized proteins were detected with OxyICC Oxidized Protein Detection Kit from Sigma (S7350) and protein inclusions were detected with PROTEOSTAT Aggresome detection kit from ENZO (ENZ-51035) following manufacturer's instructions. […] For analysis of CMA activity using direct fluorescence and the KFERQ-Dendra CMA reporter, cells isolated from KFERQ-Dendra2 transgenic mice were fixed with 2% PFA for 5 min at RT and mounted for direct puncta counting or subjected for immunofluorescence as described above. Quantification was performed in TIFF converted images upon thresholding using the 3D object counter tool of Image J software (NIH). Average number of puncta per cell was determined for each of the cells in a field and at least 3 different fields per animal were counted. Where indicated, we also calculated the percentage of cells active for CMA, defined as those with at least two Dendra positive puncta. […] CMA flux was calculated as the increase in number of Dendra positive puncta upon leupeptin treatment. […]

The subject of experiment [2] is Ctrl and L2AKO HSC. Description: Colony formation and serial re-plating assay with Ctrl and L2AKO HSC with supplemented media. It counts as cell-based, mouse. An excerpt:
Colony formation and serial re-plating assays. […] Colonies were scored after 10 to 12 days for mouse and 14 to 16 days for human cells using an Inverted Infinity and Phase Contrast Microscope (Fisher Scientific).

In experiment [3] the test system is Bead sorted CD34+ MNC from patients over 55 years of age. The experiment is described as follows: FACS quantification of phenotypical HSC (HSPCs) in CD34+ MNC after 72 hours in HSC maintenance cultures. The following applies: for long-term HSCs (LT-HSC; CD90+, CD49f+, CD34+, CD38−, Lin-): short term ex vivo culture vs vehicle (FIG. 17). The experiment is classed as cell-based, human. As to the method: FIG. 15. Representative FACS data and gating strategy. Bead sorted CD34+ MNC from patients over 55 years of age were treated with compounds 77.1, 77.43, 77.36, B13, B19 or vehicle control for 72 hours in HSC maintenance cultures. The experimental readout is quantification of phenotypical HSC (HSPCs) by FACS analysis. […] Results also identified a positive trend in HSC number from a HC derived specimen.

Experiment [4] concerns HSC from old (22 m) mice. The following applies: daily injections of GLA (1mg/kg bw) for 7 weeks vs saline.
Procedure: Mice. […] For the aging studies, 3-4 months (labeled as 4 m) and 25-30 m (labeled as >25 m) male mice were used in the young and old group, respectively. […] For GLA supplementation, old mice (>25 m) were injected with either saline or GLA (1mg/kg bw) for 40 days.
Colony formation and serial re-plating assays. Sorted mouse HSC (180 cells Lin−/cKit+/Scal+/CD48−/CD150+) or CD34-enriched human HSPC (5,000 cells) were plated into methylcellulose media ([sequence] Technologies, MethoCult M 3434 for mouse or MethoCult H4434 for human) according to the manufacturer's protocols. Colonies were scored after 10 to 12 days for mouse and 14 to 16 days for human cells using an Inverted Infinity and Phase Contrast Microscope (Fisher Scientific). […] Where indicated, media was supplemented with 100 nM FADS2 inhibitor SC-26196 (Sigma, PZ0176), 100 μM γ-linolenic fatty acid (GLA) (Sigma, L2378), 100 μtM NAC (Sigma, A7250) or 5 mM Methyl-pyruvate (Sigma, 371173).
Experiment [5] relates to human CD34+ cells from old (>65 year) multi-myeloma patients. The following applies: CD34+ cells from old (>65 years) patients, ex vivo GLA.
Source text: Human hematopoietic stem and progenitor cells. Mobilized peripheral blood from multiple myeloma patients (59-71 years old) was enriched for mononuclear cells by density gradient centrifugation using Ficoll-Paque PLUS (GE Healthcare). Mono-nuclear cells were further enriched for CD34+ cells using immunomagnetic bead sorting (CD34 MicroBead Kit, human; Miltenyi Biotec) according to the manufacturer's protocol. The isolated CD34+cells were then used for LTC-IC or colony formation assays. LTC-IC assay. To assess LTC-IC frequencies, serial dilutions of FACS-sorted mouse Lin-Sca-l+c-Kit+ (LSK) cells or CD34+enriched human HSPCs were plated in MyeloCult [MUT] for mouse or MyeloCult [MUT] for human ([sequence] Technologies) mixed at 50:50 ratio with primary mouse stroma cell-conditioned medium or with HS5-conditioned medium for human cells. For each cell dose (1:10, 1:20, 1:40, 1:80, 1:160 for mouse LSK cells, 1:50, 1:100, 1:200, 1:400, 1:800 for human HSPC), 10 technical replicates were performed. […] For CFU-C counting, in the case of mouse samples, wells containing any type of colonies were scored as positive, while in the case of human samples, only wells with GEMM colonies were scored as positive. […]

As for `O=c1[nH]cc(F)c(=O)[nH]1` [5FU, 5-fluorouracil], in experiment [1] (after 5FU injection), the “time of CMA returning to basal levels in HSC” value was determined as 16 days and the “time of maximal CMA upregulation in HSC” value came out at 8 days. Moreover, the “CMA activity in HSC (Dendra puncta per cell)” value in experiment [1] (after single injection of 5FU) was “further upregulate CMA”. In the case of `CC(=O)N[C@@H](CS)C(=O)O` [NAC, N-acetylcysteine], in experiment [2] (L2AKO HSC, NAC from the 1st plating), the “long-term colony initiation abilities of L2AKO HSC (total colony numbers in 3rd plating)” value is listed as “restored their ex vivo long-term colony initiation abilities”. Consider `N#CC(CCCN1CCN(/N=C/c2cccnc2)CC1)(c1ccccc1)c1ccccc1` [SC-26196], for which, in experiment [2] (control cells, 100 nM FADS2 inhibitor SC-26196, first plating), the “self-renewal ability of control HSC (colony numbers)” value is “sufficient to reduce self-renewal ability of control cells”.

As to polyI:C, the “CMA activity in HSC (Dendra puncta per cell)” value in experiment [1] (48 hours after injection of PolyI:C vs vehicle) is “upregulated CMA”. Take `Clc1ccc2nc(-c3ccc(Nc4cnccn4)cc3)cnc2c1` [CA77.36, N-(4-(6-chloroquinoxalin-2-yl)phenyl)pyrazin-2-amine]: the “long-term HSCs (LT-HSC; CD90+, CD49f+, CD34+, CD38−, Lin-)” value in experiment [3] is on record as “significantly more long-term HSCs (LT-HSC) than vehicle”. Same read-out and setting: to `Cc1nnc(-c2ccc(-c3cnc4cc(Cl)ccc4n3)cc2)[nH]1` [CA77.43, 6-chloro-2-(4-(5-methyl-4H-1,2,4-triazol-3-yl)phenyl)quinoxaline] belongs “significantly more long-term HSCs (LT-HSC) than vehicle”.

Regarding `CC(=O)Nc1ccc(-c2cnc3cc(Cl)ccc3n2)cc1` [CA77.1, N-(4-(6-chloroquinoxalin-2-yl)phenyl)acetamide], in experiment [3] (AML patient derived specimen, 72 hours vs vehicle), the “number of phenotypical HSCs by FACS” value is “detectable and significant increase in HSCs”. The “long-term HSCs (LT-HSC; CD90+, CD49f+, CD34+, CD38−, Lin-)” value in experiment [3] is “significantly more long-term HSCs (LT-HSC) than vehicle”.

As for `CCCCC/C=C\C/C=C\C/C=C\CCCCC(=O)O` [GLA, γ-linolenic acid], the “self-renewal capacity of CMA-defective (L2AKO) HSC (colony numbers)” value in experiment [2] (L2AKO HSC, GLA supplemented media, ex vivo) was “restored their self-renewal capacity ex vivo”. The “HSC function by colony formation” value in experiment [4] is “improved HSC function as assessed by colony formation”. Moreover, the “number of functional human stem cells in long-term cultures (LTC-IC)” value in experiment [5] is recorded as “increased the number of functional human stem cells in long-term cultures”.

For the origin of these results see US20240156872A1, “Use of Chaperone-Mediated Autophagy Activators For Treating Or Preventing Blood Cancers And Myelodysplastic Syndromes And Enriching Hematopoietic Stem Cell Populations” (ALBERT EINSTEIN COLLEGE OF MEDICINE, priority 2021, published 2024).
